For data set [1], the target named is Substance-P receptor (Homo sapiens, UniProt P25103). It is filed as cell membranes, CHO, Membrane. The conditions noted are these: cho.
The target in data set [2] is T1, Endothelin-1 receptor (Homo sapiens, UniProt P25101).
T1 sequence (P25101 whole entry): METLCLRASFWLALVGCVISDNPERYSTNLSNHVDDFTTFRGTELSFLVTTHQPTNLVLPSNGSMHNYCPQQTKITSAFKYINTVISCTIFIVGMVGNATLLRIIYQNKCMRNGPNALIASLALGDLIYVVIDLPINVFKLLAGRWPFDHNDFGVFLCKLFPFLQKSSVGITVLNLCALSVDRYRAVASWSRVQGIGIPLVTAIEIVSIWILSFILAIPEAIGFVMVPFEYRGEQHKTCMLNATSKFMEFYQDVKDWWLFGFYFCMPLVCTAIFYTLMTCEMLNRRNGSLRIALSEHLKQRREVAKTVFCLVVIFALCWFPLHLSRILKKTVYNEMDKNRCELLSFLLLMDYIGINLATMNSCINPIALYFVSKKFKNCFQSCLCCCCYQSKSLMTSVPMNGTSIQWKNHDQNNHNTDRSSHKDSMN
The data set is classed as cell membranes, Membrane. To be noted: cho-k1.

Data set [3] has as its target Histamine H2 receptor (Homo sapiens, UniProt P25021). The data set is classed as cell membranes, CHO-K1, Membrane. The conditions noted are these: for IC50 / Ki: cho-k1.
The target of data set [4] is Melanocortin receptor 5 (Homo sapiens, UniProt P33032). It is filed as cell membranes, HEK293, Membrane. To be noted: hek293.
Sequence of Melanocortin receptor 5 (P33032 whole entry): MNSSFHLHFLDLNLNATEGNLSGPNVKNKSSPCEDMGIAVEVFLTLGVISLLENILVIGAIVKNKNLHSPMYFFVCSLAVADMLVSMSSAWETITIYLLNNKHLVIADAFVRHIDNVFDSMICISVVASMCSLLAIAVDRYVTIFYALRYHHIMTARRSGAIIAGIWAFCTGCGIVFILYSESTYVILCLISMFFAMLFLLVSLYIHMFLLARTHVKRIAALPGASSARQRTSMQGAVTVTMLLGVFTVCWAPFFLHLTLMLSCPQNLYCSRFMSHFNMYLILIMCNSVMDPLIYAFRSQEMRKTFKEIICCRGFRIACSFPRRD
Data set [5] has as its target Matrix metalloproteinase-9 (Homo sapiens, UniProt P14780). It is filed as cell-based.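 Note: inhibition of isolated MMP-9 enzyme activity toward a synthetic peptide substrate, from the DrugMatrix protease screening panel.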
Data set [6] addresses T2, Receptor-type tyrosine-protein phosphatase C (Homo sapiens, UniProt P08575).
T2 sequence (P08575 whole entry): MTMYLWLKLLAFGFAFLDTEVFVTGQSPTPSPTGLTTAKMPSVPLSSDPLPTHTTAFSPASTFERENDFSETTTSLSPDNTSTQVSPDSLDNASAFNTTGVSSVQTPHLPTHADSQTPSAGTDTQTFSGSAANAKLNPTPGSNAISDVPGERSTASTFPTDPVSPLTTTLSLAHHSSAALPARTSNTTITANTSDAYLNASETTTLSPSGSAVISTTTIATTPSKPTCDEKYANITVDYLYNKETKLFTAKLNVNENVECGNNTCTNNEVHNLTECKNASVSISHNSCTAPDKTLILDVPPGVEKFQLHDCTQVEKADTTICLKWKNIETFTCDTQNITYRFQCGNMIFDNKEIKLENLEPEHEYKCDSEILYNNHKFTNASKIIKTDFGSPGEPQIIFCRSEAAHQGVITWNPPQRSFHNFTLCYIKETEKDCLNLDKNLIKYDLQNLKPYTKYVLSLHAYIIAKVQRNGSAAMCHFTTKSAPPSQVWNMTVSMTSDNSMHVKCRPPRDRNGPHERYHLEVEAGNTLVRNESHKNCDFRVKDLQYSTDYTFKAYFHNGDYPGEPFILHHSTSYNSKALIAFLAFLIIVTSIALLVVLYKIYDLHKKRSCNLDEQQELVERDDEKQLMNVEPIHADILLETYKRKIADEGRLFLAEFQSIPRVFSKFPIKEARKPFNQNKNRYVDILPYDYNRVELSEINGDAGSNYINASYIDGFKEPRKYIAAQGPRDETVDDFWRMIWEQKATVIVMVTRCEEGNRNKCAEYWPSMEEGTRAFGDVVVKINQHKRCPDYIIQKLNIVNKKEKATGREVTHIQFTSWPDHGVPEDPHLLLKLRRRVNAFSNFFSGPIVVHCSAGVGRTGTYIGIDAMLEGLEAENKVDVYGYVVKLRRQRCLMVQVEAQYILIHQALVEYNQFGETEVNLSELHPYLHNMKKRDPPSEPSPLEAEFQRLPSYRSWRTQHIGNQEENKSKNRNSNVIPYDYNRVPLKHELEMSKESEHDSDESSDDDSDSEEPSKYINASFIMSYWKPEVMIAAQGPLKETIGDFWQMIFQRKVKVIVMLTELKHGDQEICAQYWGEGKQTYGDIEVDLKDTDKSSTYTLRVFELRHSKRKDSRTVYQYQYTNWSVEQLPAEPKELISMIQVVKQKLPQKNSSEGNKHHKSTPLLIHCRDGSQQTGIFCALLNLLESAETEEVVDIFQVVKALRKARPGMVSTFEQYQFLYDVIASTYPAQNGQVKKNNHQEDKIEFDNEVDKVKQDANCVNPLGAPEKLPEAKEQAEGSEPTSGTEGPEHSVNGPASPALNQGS
The arrangement: species or system Escherichia coli.

Data set [7] addresses Cytochrome P450 3A4 (Homo sapiens, UniProt P08684). To be noted: bti-tn-5b1-4.

Consider 10 compounds from ChEMBL document CHEMBL1909046, “DrugMatrix in vitro pharmacology data”.

pIC50, pKi: −log10 of the molar value.
Note: in other assays of this panel Not Active means under 50% inhibition at 10 µM.

Sequence of Cytochrome P450 3A4 (P08684 whole entry): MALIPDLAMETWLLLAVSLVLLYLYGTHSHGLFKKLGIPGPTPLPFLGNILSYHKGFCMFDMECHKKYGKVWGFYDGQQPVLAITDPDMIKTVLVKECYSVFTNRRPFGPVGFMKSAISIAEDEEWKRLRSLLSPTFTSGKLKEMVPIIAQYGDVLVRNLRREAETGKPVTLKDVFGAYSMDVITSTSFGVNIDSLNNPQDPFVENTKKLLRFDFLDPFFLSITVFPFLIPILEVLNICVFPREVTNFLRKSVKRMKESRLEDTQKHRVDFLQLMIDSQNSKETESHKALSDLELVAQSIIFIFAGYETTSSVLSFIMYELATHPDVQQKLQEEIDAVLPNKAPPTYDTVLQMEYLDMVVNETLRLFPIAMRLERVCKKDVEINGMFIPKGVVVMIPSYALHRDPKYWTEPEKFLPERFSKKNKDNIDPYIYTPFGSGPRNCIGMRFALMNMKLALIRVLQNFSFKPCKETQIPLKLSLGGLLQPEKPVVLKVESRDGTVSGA
Sequence of Matrix metalloproteinase-9 (P14780 whole entry): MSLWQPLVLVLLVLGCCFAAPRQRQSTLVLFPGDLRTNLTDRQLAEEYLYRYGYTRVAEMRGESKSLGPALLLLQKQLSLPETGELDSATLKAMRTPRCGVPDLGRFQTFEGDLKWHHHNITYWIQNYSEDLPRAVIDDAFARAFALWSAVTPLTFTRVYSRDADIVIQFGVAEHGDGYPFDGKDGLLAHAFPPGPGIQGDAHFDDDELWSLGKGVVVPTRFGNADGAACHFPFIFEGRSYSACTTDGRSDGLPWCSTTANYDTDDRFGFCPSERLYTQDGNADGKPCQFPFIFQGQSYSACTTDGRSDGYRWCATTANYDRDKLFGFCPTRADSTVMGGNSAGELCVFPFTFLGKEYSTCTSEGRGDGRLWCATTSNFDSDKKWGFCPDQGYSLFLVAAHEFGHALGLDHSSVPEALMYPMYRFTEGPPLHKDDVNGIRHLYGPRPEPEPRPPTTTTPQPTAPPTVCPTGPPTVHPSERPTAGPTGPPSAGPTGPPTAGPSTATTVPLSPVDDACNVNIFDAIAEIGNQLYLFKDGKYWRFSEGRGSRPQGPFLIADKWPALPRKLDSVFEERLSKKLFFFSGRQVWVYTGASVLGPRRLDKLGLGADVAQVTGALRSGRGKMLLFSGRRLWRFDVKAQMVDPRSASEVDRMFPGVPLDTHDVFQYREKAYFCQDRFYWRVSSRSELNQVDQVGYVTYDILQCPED
Sequence of Substance-P receptor (P25103 whole entry): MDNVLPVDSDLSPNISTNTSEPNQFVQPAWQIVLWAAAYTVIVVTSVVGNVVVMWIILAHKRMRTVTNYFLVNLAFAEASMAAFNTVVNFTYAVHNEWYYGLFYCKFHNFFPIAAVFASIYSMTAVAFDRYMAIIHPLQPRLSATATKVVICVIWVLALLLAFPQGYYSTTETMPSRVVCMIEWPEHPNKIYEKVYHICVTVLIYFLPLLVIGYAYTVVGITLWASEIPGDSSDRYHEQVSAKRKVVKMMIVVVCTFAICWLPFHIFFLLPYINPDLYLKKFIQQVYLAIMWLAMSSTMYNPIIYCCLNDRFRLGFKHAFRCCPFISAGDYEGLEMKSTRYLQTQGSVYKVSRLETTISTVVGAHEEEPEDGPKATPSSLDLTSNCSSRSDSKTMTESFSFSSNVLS
Sequence of Histamine H2 receptor (P25021 whole entry): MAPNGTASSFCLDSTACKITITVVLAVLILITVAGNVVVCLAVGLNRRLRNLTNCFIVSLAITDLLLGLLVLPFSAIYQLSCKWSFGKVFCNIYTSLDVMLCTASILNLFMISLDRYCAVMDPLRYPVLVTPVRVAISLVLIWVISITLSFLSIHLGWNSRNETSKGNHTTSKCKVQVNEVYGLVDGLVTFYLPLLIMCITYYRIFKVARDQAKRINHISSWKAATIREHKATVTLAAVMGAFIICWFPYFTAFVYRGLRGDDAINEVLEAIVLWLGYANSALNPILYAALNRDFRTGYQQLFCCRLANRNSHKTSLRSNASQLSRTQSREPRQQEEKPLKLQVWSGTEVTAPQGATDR

As for `O=C1C[C@@H]2OCC=C3CN4CC[C@]56c7ccccc7N1[C@H]5[C@H]2[C@H]3C[C@H]46` [STRYCHNINE], the IC50 entry in data set [1], in data set [2], in data set [3], in data set [4], in data set [5] and in data set [6] was “Not Active” in each case. Further, the IC50 entry in data set [7] was “Not Active”. Also, the Ki entry in data set [7] is recorded as “Not Active”.

For `C[N+](C)(C)CCOC(=O)CCC(=O)OCC[N+](C)(C)C.[Cl-].[Cl-]` [SUCCINYLCHOLINE CHLORIDE], the IC50 result in data set [1], in data set [2], in data set [3], in data set [4], in data set [5] and in data set [6] was “Not Active” each time. Further, the IC50 entry in data set [7] is reported as “Not Active”. Also, the Ki result in data set [7] is reported as “Not Active”.

`Nc1ccc(S(=O)(=O)NC(=O)c2ccccc2)cc1` [SULFABENZAMIDE]: the IC50 result in data set [1], in data set [2], in data set [3], in data set [4], in data set [5] and in data set [6] was “Not Active” in each case. Moreover, the IC50 result in data set [7] is listed as “Not Active”. Also, the Ki result in data set [7] is given as “Not Active”.

What is called pIC50 is the negative decadic logarithm of the IC50, by convention in mol/L. The pKi is −log10 of the Ki, conventionally taken in molar units. On to `CCCCCCCCNC(C)C(O)c1ccc(SC(C)C)cc1` (stereo not drawn) [SULOCTIDIL], for which the IC50 result in data set [1], in data set [2], in data set [4], in data set [5], in data set [6] and in data set [7] was “Not Active” each time. In addition, in data set [3] (read-out: IC50), the pIC50 was 6.97. Further, in data set [3] (read-out: Ki), the pKi was 7.05. The Ki result in data set [7] is recorded as “Not Active”.

`O=c1[nH]c(=O)n(C2CCCO2)cc1F` (stereo not drawn) [TEGAFUR]: the IC50 entry in data set [1], in data set [2], in data set [3], in data set [4], in data set [5] and in data set [6] was “Not Active” each time. Also, the IC50 result in data set [7] is listed as “Not Active”. Moreover, the Ki entry in data set [7] was “Not Active”.

Turning to `CC(=N)S` [THIOACETAMIDE], the IC50 entry in data set [1], in data set [2], in data set [3], in data set [4], in data set [5] and in data set [6] was “Not Active” in each case. Further, in data set [7], the IC50 result was “Not Active”. Further, the Ki result in data set [7] is reported as “Not Active”.

Take `Cc1ccc(C(=O)c2ccc(CC(=O)O)n2C)cc1` [TOLMETIN]: the IC50 result in data set [1], in data set [2], in data set [3], in data set [4], in data set [5] and in data set [6] was “Not Active” throughout. Moreover, the IC50 result in data set [7] was “Not Active”. For the same compound, in data set [7], the Ki entry is “Not Active”.

Turning to `CC(=O)OCC(COC(C)=O)OC(C)=O` [TRIACETIN], the IC50 entry in data set [1], in data set [2], in data set [3], in data set [4], in data set [5] and in data set [6] was “Not Active” each time. Further, in data set [7], the IC50 result is reported as “Not Active”. Moreover, the Ki result in data set [7] is on record as “Not Active”.

Turning to TRANSPLATIN, the IC50 result in data set [1], in data set [2], in data set [3], in data set [4], in data set [5] and in data set [6] was “Not Active” throughout. In addition, in data set [7], the IC50 result is “Not Active”. Besides, the Ki entry in data set [1], in data set [2], in data set [3], in data set [4], in data set [5] and in data set [6] was “Not Active” throughout. The Ki result in data set [7] was “Not Active”.

For ZIRCONIUM(IV) CHLORIDE, the IC50 result in data set [1], in data set [2], in data set [3], in data set [4], in data set [5] and in data set [6] was “Not Active” throughout. Moreover, the IC50 entry in data set [7] is given as “Not Active”. In addition, the Ki entry in data set [1], in data set [2], in data set [3], in data set [4], in data set [5] and in data set [6] was “Not Active” throughout. For the same compound, the Ki result in data set [7] is reported as “Not Active”.
